Results on one compound are retold here after patent US9925222B2, “Gut barrier dysfunction treatment and prevention” (ALBERT EINSTEIN COLLEGE OF MEDICINE OF YESHIVA UNIVERSITY, priority 2012, dated 2018).

SMILES strings stand for the structures.

The target of data set [1] is T1, mouse PXR (mPXR) (Mus musculus, UniProt O54915).
T1 construct: expressed in transfected cells; host or cells: 293T cells
T1 sequence (O54915 1-431): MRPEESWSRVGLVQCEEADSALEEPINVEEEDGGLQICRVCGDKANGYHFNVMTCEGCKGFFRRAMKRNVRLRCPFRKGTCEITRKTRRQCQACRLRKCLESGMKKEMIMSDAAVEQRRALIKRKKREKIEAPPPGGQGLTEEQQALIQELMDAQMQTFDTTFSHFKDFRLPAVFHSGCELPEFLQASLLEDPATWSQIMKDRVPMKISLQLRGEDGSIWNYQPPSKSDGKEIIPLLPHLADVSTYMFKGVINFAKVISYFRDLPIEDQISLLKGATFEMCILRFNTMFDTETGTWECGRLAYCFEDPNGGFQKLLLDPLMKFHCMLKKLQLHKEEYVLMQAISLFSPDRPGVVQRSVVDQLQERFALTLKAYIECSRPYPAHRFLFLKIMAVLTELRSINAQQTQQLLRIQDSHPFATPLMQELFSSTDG
As to the kind of experiment: In vitro transcription assay, PXR reporter gene (MRP2 luciferase) with mPXR expression plasmid in 293T cells. In kind it is cell-based. For orientation: In a reporter assay the amount or activity of a reporter protein is the signal.
Experimental: These assays were performed in 293T cells as previously published (33). In brief, transient transfection by lipofectamine (Invitrogen) were carried out in 293T cells with plasmids expressing human PXR (hPXR), mouse PXR (mPXR), GAL4-FXR, GAL4-LXR, GAL4-PPARγ and mouse CAR (mCAR) with respective reporter plasmids (Tk-MRP2-luciferase, Tk-MH100-luciferase, CYP2B10-luciferase) and Renilla. […] The cells were harvested in passive lysis buffer (Promega) and luciferase activity was detected using the dualluciferase reporter assay system from Promega in 20 μl of cell lysate using the Turner Biosystems 20/20 n Luminometer. Assays were performed at least two independent times each in triplicates.

For data set [2], the system named is gut permeability to FITC-dextran. As to the kind of experiment: In vivo FITC-dextran gut permeability assay in germ free mice after oral IPA. Conditions: germ free (SWGF) mice; oral IPA 20 mg/kg, four consecutive days. As for the experimental part: Age and sex-matched mice were orally administered with 0.6 mg/g body weight of an 80 mg/ml solution of FITC-dextran (FD4, Sigma). 5 h later, retro-orbital blood was collected from each mouse. Serum was prepared by allowing the blood to clot by leaving it undisturbed overnight at 4° C. and then subsequently centrifuged at 3000 rpm for 20 minutes. Dilutions of FITC-dextran in PBS were used as a standard curve. Absorption of 50 μl serum was measured at microplate reader with excitation and emission filters set at 490 and 530 nm, respectively (38).

Data set [3] addresses T2, aryl hydrocarbon receptor (AhR) (Homo sapiens, UniProt P35869).
T2 sequence (P35869 11-848): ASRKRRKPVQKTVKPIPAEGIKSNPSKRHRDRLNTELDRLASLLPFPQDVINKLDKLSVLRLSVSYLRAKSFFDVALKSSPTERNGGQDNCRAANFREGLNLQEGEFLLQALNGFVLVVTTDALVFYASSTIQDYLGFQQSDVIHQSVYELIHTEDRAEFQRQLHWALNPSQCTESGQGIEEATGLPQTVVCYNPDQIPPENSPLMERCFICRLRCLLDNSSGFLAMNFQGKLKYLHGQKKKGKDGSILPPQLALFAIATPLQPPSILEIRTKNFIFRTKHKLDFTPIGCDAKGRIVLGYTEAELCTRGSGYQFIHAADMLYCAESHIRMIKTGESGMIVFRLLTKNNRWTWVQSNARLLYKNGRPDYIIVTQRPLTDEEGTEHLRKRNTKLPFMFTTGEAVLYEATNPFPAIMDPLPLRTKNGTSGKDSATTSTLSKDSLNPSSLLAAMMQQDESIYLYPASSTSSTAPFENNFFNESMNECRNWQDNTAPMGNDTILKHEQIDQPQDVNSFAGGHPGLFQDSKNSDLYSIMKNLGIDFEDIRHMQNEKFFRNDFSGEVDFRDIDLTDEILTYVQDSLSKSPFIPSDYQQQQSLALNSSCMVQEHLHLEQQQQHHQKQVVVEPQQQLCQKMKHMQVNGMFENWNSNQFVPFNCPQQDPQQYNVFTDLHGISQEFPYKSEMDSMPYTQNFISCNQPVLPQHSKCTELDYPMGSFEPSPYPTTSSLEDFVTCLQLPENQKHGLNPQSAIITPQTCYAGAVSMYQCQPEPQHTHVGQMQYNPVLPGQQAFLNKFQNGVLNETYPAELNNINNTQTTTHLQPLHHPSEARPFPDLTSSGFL
Put plainly: AhR activation.

The target of data set [4] is T3, human PXR (hPXR) (Homo sapiens, UniProt O75469).
T3 sequence (O75469 1-434): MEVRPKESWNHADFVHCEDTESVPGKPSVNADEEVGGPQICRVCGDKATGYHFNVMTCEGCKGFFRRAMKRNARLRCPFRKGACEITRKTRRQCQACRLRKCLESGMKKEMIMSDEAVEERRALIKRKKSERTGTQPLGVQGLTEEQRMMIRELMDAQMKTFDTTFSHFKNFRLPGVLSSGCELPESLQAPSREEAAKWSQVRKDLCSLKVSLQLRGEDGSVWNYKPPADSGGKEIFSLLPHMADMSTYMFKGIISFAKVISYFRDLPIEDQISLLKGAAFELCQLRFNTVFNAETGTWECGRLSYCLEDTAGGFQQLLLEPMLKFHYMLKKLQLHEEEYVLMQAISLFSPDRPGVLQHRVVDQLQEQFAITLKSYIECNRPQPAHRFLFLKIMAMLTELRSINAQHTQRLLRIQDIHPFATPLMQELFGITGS
As to the kind of experiment: In vitro transcription assay, PXR reporter gene (MRP2 luciferase) with hPXR expression plasmid in 293T cells. On the procedure: These assays were performed in 293T cells as previously published (33). In brief, transient transfection by lipofectamine (Invitrogen) were carried out in 293T cells with plasmids expressing human PXR (hPXR), mouse PXR (mPXR), GAL4-FXR, GAL4-LXR, GAL4-PPARγ and mouse CAR (mCAR) with respective reporter plasmids (Tk-MRP2-luciferase, Tk-MH100-luciferase, CYP2B10-luciferase) and Renilla. For TLR4 promoter luciferase transcription assay, TLR4 promoter reporter construct (a gift from Dr. Michael Rehli of University of Regensburg, Germany) was transfected along with human PXR, mouse PU.1 expression plasmids and Renilla. […] The cells were harvested in passive lysis buffer (Promega) and luciferase activity was detected using the dualluciferase reporter assay system from Promega in 20 μl of cell lysate using the Turner Biosystems 20/20 n Luminometer. Assays were performed at least two independent times each in triplicates.

Consider `O=C(O)CCc1c[nH]c2ccccc12` [IPA, indole-3-propionic acid], for which, in data set [1], the EC50 (as a rule, the concentration giving half of the maximal effect) came to 0.55 µM and the “Emax, mPXR transcription assay” value is recorded as 18.84 fold over control. Besides, the “Gut permeability to FITC-dextran” value in data set [2] is given as “decreased gut permeability to FITC-dextran”. For the same compound, the “Activation of AhR” value in data set [3] is on record as “no activation”. The concentration giving a half-maximal response (EC50) in data set [4] was 120 µM. The “Emax, hPXR transcription assay” value in data set [4] (IPA alone, MRP2 luciferase, 293T cells) is 6.38 fold over control. In addition, in data set [4] (fixed concentration of indole (1 mM), increasing concentrations of metabolite), the “hPXR activation in combination with indole” value is listed as “significantly activates hPXR”.
